Earlier results in patent US12414956B2, “Method for smoking cessation” (CALISTA CAPITAL, LLC, priority 2017, dated 2025).
Like-named read-outs stand apart in the source and are kept apart here.

Experiments:
[1] = after six months, clinical trials
[2] = mean, capsules, adult subjects, plasma

| AUC ([2]; single 300 mg oral dose) | Cmax ([2]; single 300 mg oral dose) | tmax ([2]; single 300 mg oral dose) | AUC ([2]; single 600 mg oral dose) | Cmax ([2]; single 600 mg oral dose) | tmax ([2]; single 600 mg oral dose) | Compound | success rate [1] |
| --- | --- | --- | --- | --- | --- | --- | --- |
|  |  |  |  |  |  | c1cnc2cc3c(cc2n1)[C@@H]1CNC[C@H]3C1 [CHANTIX, varenicline] | 14% |
| 7050 ng·h/mL | 1600 ng/mL | 2.9 h | 11100 ng·h/mL | 2870 ng/mL | 3.0 h | C=CC1=C(C(=O)O)N2C(=O)[C@@H](NC(=O)/C(=N\O)c3csc(N)n3)[C@H]2SC1 [Cefdinir, cefdinir] |  |
